Assay results: patent US9486457B2, “Use of cinnabarinic acid as a modulator of immune responses in autoimmune disorders” (The Regents of the University of California, priority 2010, dated 2016)
Entries after “also recorded” stand apart in the source; their conditions may differ.

How the values were obtained:
[1] = system: experimental allergic encephalomyelitis (EAE); conditions: literature reports (refs 15, 25 as cited in text); cited from earlier work
[2] = system: stimulated human CD4+ T cells; assay: IL-22 expression by CD4+ T cells in stimulated human PBMCs / T cells; type: cell-based; conditions: for IL-22 expression by CD4+ T cells (Th22 differentiation): stimulated human PBMCs / T cells, 100 μM for 3-HKyn and 3-HAA in FIG. 6A
Source text: FIG. 6: 3-HKyn and 3-HAA promote IL-22 expression by stimulated human CD4+ T cells. […] (C) IL-22 induction by 3-HAA is blocked by inhibition of the AhR pathway.
This is highlighted by the observation that AHR−/− mice retain the ability to generate some Th17 cells, but are incapable of generating cells that express IL-22 (16-18). […] To screen for the ability of tryptophan metabolites generated downstream of IDO to activate the AHR, we stimulated human T cells in vitro in the presence of different tryptophan metabolites (3-Hydroxykynurenine (3-HKA), 3-Hydroxyanthranilic Acid (3-HAA), Picolinic Acid (PA), and Quinolinic Acid (QA)) to assess whether any promoted the expansion of CD4+ T cells secreting IL-22. […] To determine whether the induction of IL-22 within this population was dependent upon AHR activation, we next stimulated human T cells in the presence or absence of a potent AHR antagonist (CH-223191) and monitored the induction of IL-22.

AHR = target: T1, AHR (Mus musculus, UniProt P30561); assay: AHR-responsive (dioxin responsive element) GFP reporter assay in H1G1 mouse hepatoma cells; type: cell-based; conditions: for AHR agonist activity (activation of AHR-responsive reporter): agonist mode; for AHR antagonist activity (block of AHR activation by TCDD): antagonist mode, co-treatment with TCDD, H1G1 cells
T1 construct: murine hepatoma cell line stably transfected with an AhR-responsive (AhR-eGFP) reporter construct; endogenous in cells
T1 sequence (P30561 10-848): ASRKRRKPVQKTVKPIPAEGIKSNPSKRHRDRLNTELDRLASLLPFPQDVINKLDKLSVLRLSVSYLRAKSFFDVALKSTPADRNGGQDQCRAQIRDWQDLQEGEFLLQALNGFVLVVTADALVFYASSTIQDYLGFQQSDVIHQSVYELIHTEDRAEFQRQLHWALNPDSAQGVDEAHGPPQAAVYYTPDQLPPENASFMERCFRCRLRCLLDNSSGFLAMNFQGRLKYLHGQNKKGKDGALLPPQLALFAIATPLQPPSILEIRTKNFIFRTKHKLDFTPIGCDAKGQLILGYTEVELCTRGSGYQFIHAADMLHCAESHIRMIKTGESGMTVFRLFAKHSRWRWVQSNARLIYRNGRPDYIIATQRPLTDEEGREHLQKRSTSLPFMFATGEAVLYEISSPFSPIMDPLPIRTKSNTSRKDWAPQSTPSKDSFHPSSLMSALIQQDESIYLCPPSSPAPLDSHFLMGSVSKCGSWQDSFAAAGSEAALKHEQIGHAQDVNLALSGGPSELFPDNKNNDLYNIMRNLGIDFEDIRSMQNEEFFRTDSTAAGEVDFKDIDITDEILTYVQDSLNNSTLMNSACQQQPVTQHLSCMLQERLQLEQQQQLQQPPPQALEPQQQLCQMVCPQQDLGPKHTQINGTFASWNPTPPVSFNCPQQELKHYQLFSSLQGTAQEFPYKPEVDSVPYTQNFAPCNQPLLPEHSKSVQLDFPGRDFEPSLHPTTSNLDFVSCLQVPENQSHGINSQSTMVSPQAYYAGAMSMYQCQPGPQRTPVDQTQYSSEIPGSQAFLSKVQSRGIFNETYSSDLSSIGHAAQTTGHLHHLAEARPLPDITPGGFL
Source text: (§1) We performed a precursory screen of all tryptophan metabolites including both 3-HKA and 3-HAA to bind to and act as agonists or antagonists of the AHR using two separate assays. First we examined the ability of 3-HKyn, 3-HAA, and PA to displace TCDD binding to the human AHR protein in vitro (20). […] We also measured AHR activation using a mouse hepatoma cell line (H1G1) that stably expresses a green fluorescent protein (GFP) reporter construct downstream of a series of dioxin responsive elements (FIG. 7A) (21).

human AHR protein = target: T2, human AHR protein (Homo sapiens, UniProt P35869); assay: Displacement of TCDD binding to in vitro translated human AHR protein; conditions: cell-free
T2 sequence (P35869 11-848): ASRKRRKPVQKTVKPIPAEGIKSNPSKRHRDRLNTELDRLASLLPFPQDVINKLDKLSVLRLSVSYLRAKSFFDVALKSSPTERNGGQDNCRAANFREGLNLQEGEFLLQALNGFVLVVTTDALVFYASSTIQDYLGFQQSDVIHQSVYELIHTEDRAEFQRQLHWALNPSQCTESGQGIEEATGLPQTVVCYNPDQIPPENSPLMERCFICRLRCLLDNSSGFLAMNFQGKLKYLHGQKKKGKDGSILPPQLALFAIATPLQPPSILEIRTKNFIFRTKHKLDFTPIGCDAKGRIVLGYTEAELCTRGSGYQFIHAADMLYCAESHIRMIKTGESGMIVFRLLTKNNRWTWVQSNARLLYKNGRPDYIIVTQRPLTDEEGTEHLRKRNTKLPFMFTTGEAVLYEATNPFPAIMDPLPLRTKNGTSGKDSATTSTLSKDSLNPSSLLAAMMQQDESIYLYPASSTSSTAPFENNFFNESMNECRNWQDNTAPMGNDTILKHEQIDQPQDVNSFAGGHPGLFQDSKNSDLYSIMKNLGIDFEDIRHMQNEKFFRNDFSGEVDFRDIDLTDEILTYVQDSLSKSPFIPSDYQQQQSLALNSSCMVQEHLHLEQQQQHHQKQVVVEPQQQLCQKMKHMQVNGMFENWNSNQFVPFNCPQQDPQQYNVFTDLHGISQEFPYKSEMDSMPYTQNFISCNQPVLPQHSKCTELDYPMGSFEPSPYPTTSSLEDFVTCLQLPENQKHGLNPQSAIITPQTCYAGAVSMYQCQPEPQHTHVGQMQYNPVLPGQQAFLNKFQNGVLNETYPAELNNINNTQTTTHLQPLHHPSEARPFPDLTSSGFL
Source text: as §1

[3] = system: naïve (CD45RA+CCR7+CD95−CD25−) CD4+ T cells; assay: Foxp3 induction in stimulated naïve CD4+ T cells; type: cell-based, human
Source text: FIG. 9: The synthetic 3-HAA analogue 3,4 DAA (Tranilast) is an AhR antagonist and promotes the induction of Foxp3 by stimulated CD4+ T cells. (A) 3,4 DAA shares some structural similarities to 3-HAA (highlighted region).
Therefore we asked whether T cells treated with 3,4 DAA might be prompted to differentiate into Treg cells through upregulation of the transcription factor Foxp3 (26).

human naïve CD4+ T cells = assay: IL-22 induction in cultured human naïve CD4+ T cells stimulated with anti-CD3/anti-CD28 under Th17 polarizing conditions; type: cell-based; conditions: CA 25 μM in FIG. 8D
Source text: This is AHR dependent as inclusion of an AHR antagonist fully abrogated effect.
FIG. 8: CA is an endogenous AhR agonist generated by oxidative dimerization of 3-HAA. (A) An alternative pathway of 3-HAA metabolism leads to the generation of CA either by non-enzymatic (oxidation) or enzymatic (laccase, ceruloplasmin) processes. CA is structurally similar to the synthetic AhR ligand TCDD. […] Data are representative of three similar experiments.

[4] = system: stimulated human CD4+ T cells; conditions: literature (ref 19); cited from earlier work

With `Clc1cc2c(cc1Cl)Oc1cc(Cl)c(Cl)cc1O2` [TCDD, 2,3,7,8-tetrachlorodibenzodioxin] as the molecule, how does the “effect on EAE as previously reported” value [1] read?
Its value is “protective”.

Which results are given for `Nc1c(O)cccc1C(=O)CC(N)C(=O)O` (stereo not shown) [3-HKyn, 3-Hydroxykynurenine]?
IL-22 expression by CD4+ T cells (Th22 differentiation) [2]: leads to the expansion of a population of cells expression the cytokine IL-22; IL-22 expression by CD4+ T cells (Th22 differentiation) ([2]; listed as 3-HKA): able to promote the differentiation of Th22 cells; AHR agonist activity (activation of AHR-responsive reporter) (AHR): none of the other metabolites (3-HKyn, PA, QA) were found to have any activity as agonists or antagonists; AHR antagonist activity (block of AHR activation by TCDD) (AHR): none of the other metabolites (3-HKyn, PA, QA) were found to have any activity as agonists or antagonists; displacement / inhibition of TCDD binding to human AHR (human AHR protein): unable to measure any significant displacement

For `NCCc1c[nH]c2ccccc12` [Tryptamine, tryptamine], which “AHR agonist activity (activation of AHR-responsive reporter)” value (“AHR agonist activity” for short) (AHR) is on record?
The value was “positive control”.

For `O=C(O)c1ccccn1` [PA, Picolinic Acid], which “AHR agonist activity” value (AHR) is on record?
Its value is “none of the other metabolites (3-HKyn, PA, QA) were found to have any activity as agonists or antagonists”.

And the “AHR antagonist activity (block of AHR activation by TCDD)” value (AHR)?
Its value is “none of the other metabolites (3-HKyn, PA, QA) were found to have any activity as agonists or antagonists”.

What about the “displacement / inhibition of TCDD binding to human AHR” value (human AHR protein) of the same molecule?
Its value is “unable to measure any significant displacement”.

Which “Foxp3 expression (frequency of CD4+Foxp3+ T cells)” value ([3]; stimulated naïve CD4+ T cells in vitro) does the source give for `Nc1c(O)cccc1C(=O)O` [3-HAA, 3-Hydroxyanthranilic Acid] here?
Its value is “promotes Foxp3 upregulation but to a lesser extent”.

What about the “expansion of Th22 cells” value ([2]; different donors) of the same molecule?
The value was ≥ 2 fold.

What about the “IL-22 expression by CD4+ T cells (Th22 differentiation)” value [2] of the same molecule?
Its value is “able to promote the differentiation of Th22 cells; also recorded: leads to the expansion of a population of cells expression the cytokine IL-22; also recorded: promotes IL-22 expression in dose-dependent manner”.

What about the “AHR agonist activity” value (AHR) of the same molecule?
The value was “modest increase in AHR activity using 3-HAA as an agonist, this failed to reach significance; also recorded: minimal activation of the AhR; also recorded: no activity in short-term assays”.

And the IL-22 induction (human naïve CD4+ T cells)?
The IL-22 induction was “only had minimal effects”.

And the “displacement / inhibition of TCDD binding to human AHR” value (human AHR protein)?
Its value is “modest binding of 3-HAA only at very high concentrations”.

For `NC(=O)c1ccc(-c2nc(-c3ccc4c(c3)OCO4)c(-c3ccccn3)[nH]2)cc1` [SB-431542], which “reversal of Foxp3 upregulation by 3,4 DAA and 3-HAA” value ([3]; TGFβ signaling inhibitor added) is on record?
Its value is “reversed the ability of 3,4 DAA and 3-HAA to upregulate Foxp3”.

With `O=C(O)c1cccnc1C(=O)O` [QA, Quinolinic Acid] as the molecule, how does the “AHR agonist activity” value (AHR) read?
Its value is “none of the other metabolites (3-HKyn, PA, QA) were found to have any activity as agonists or antagonists”.

And the “AHR antagonist activity (block of AHR activation by TCDD)” value (AHR)?
The value was “none of the other metabolites (3-HKyn, PA, QA) were found to have any activity as agonists or antagonists”.

For `Nc1c(C(=O)O)ccc(F)c1O` [4-F-3-HAA, 4-fluoro-3-hydroxythranilic acid], which “effect of HAAO inhibition on the ability of 3-HAA to induce IL-22” value ([2]; in the presence of different concentrations of 3-HAA) is on record?
Its value is “stark increase in the ability of 3-HAA to induce IL-22”.

Which results are given for `Cc1ccccc1N=Nc1ccc(NC(=O)c2ccnn2C)c(C)c1` [CH-223191]?
block of IL-22 induction by 3-HAA ([2]; AHR antagonist added with 3-HAA): significantly abolish IL-22 induction by 3-HAA; AHR antagonist activity (block of AHR activation by TCDD) (AHR): potent antagonist; AHR antagonist activity (block of AHR activation by TCDD) (AHR; listed as CH223191): positive control

Which “effect on EAE as previously reported” value [1] does the source give for `O=Cc1c2c(cc3c1=Nc1ccccc1-3)=Nc1ccccc1-2` [FICZ, 6-formylindolo[3,2-b]carbazole] here?
Its value is “increased disease severity”.

What about the “frequency of CD4+ T cells that produce IL-22 (Th22), as previously reported” value [4] of the same molecule?
The value was “promoted a significant increase in the frequency of CD4+ T cells that produced IL-22”.
